Experimental findings from patent publication EP4389751A1, “HETEROCYCLIC COMPOUNDS AND USES THEREOF” (Kumquat Biosciences Inc., priority 2021, dated 2024) are described below.

The test system of assay [1] is GP2D cells. Kind of assay: Cell proliferation assay (CellTiter-Glo), K-Ras G12D cells. The format is cell-based. The following applies: GP2D cells (K-Ras G12D); read-out: Inhibition of GP2D Cells (IC50). The procedure, abridged: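 GP2D (K-Ras G12D) cells seeded in DMEM with 2 mM glutamine and 10% FBS, then dosed next day with a dilution series (e.g., 9-point 3-fold). Viability read by CellTiter-Glo luminescence after about 5 days. IC50 from four-parameter fit.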
(In ATP-based viability assays light output follows the ATP content of the culture.)

In assay [2] the target is T1, KRAS protein (His-tagged GDP-loaded G12S 1-169) (Homo sapiens, UniProt P01116, G12S).
T1 construct: His-tagged GDP-loaded G12S 1-169
Kind of assay: Covalent modification of KRAS protein, intact-protein LC-MS. It is filed as binding. The settings on record: for % G12S Modification at 24 hr.: 24hrs at room temperature, KRAS protein ~2 µM. In short, it runs like this:
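His-tagged GDP-loaded KRAS 1-169 (~2 µM) incubated with compound 24 h at room temperature, then quenched with formic acid. Intact-protein LC-ESI-MS on C4 column; deconvoluted peak intensities of unmodified and adducted protein give percent covalent modification.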

In the case of `N#Cc1c(N)sc2c(F)ccc(-c3c(Cl)cc4c(N5CCC6(CN(C(=O)n7cncn7)C6)C5)nc(OC[C@@]56CCCN5C[C@H](F)C6)nc4c3F)c12` [Compound A277, 4-(4-(2-(1H-1,2,4-triazole-1-carbonyl)-2,6-diazaspiro[3.4]octan-6-yl)-6-chloro-8-fluoro-2-(((2R,7aS)-2-fluorotetrahydro-1H-pyrrolizin-7a(5H)-yl)methoxy)quinazolin-7-yl)-2-amino-7-fluorobenzo[b]thiophene-3-carbonitrile], the 50% inhibitory concentration (IC50) (usually the concentration needed to halve the response being measured) in assay [1] fell in the range of 1 to 10 µM. The “K-Ras12S engagement after 24-hour treatment” value in assay [2] (24-hour treatment, compound pairs differ only at R^6 (warhead)) is “+++ (+++: indicates equal to or greater than 20% labelling)”. In assay [2], the “% G12S Modification at 24 hr.” value was “+++ (+++ indicates greater than 20% labelling)”.

For `Cc1nc(C)n(C(=O)N2CC3(C2)CN(c2nc(OC[C@@]45CCCN4C[C@H](F)C5)nc4c(F)c(-c5ccc(F)c6sc(N)c(C#N)c56)c(Cl)cc24)CCO3)n1` [Compound A283, 2-amino-4-(6-chloro-4-(2-(3,5-dimethyl-1H-1,2,4-triazole-1-carbonyl)-5-oxa-2,8-diazaspiro[3.5]nonan-8-yl)-8-fluoro-2-(((2R,7aS)-2-fluorotetrahydro-1H-pyrrolizin-7a(5H)-yl)methoxy)quinazolin-7-yl)-7-fluorobenzo[b]thiophene-3-carbonitrile], in assay [1], the 50% inhibitory concentration (IC50) lay within 1 to 10 µM. Also, the “% G12S Modification at 24 hr.” value in assay [2] was “+++ (+++ indicates greater than 20% labelling)”.

`N#Cc1c(N)sc2c(F)ccc(-c3c(Cl)cc4c(N5CC6(CCCCN(C(=O)n7cncn7)C6)C5)nc(OC[C@@]56CCCN5C[C@H](F)C6)nc4c3F)c12` [Compound A285, 4-(4-(6-(1H-1,2,4-triazole-1-carbonyl)-2,6-diazaspiro[3.6]decan-2-yl)-6-chloro-8-fluoro-2-(((2R,7aS)-2-fluorotetrahydro-1H-pyrrolizin-7a(5H)-yl)methoxy)quinazolin-7-yl)-2-amino-7-fluorobenzo[b]thiophene-3-carbonitrile]: the IC50 in assay [1] was 1 to 10 µM. In assay [2], the “% G12S Modification at 24 hr.” value is “+++ (+++ indicates greater than 20% labelling)”.

Take `C#Cc1c(F)ccc2cc(O)cc(-c3ncc4c(N5CCOCC6(CN(C(=O)n7cnc(C)n7)C6)C5)nc(OC[C@@]56CCCN5C[C@H](F)C6)nc4c3F)c12` [Compound A298, (9-(7-(8-ethynyl-7-fluoro-3-hydroxynaphthalen-1-yl)-8-fluoro-2-(((2R,7aS)-2-fluorotetrahydro-1H-pyrrolizin-7a(5H)-yl)methoxy)pyrido[4,3-d]pyrimidin-4-yl)-6-oxa-2,9-diazaspiro[3.6]decan-2-yl)(3-methyl-1H-1,2,4-triazol-1-yl)methanone]: in assay [1], the IC50 was 1 to 10 µM. The “% G12S Modification at 24 hr.” value in assay [2] is “+++ (+++ indicates greater than 20% labelling)”.

In the case of `Cc1ncn(C(=O)N2CC3CCN(c4nc(OC[C@@]56CCCN5C[C@H](F)C6)nc5c(F)c(-c6ccc(F)c7sc(N)c(C#N)c67)c(Cl)cc45)C3C2)n1` (stereo partly drawn) [Compound A304, 2-amino-4-(6-chloro-8-fluoro-2-(((2R,7aS)-2-fluorotetrahydro-1H-pyrrolizin-7a(5H)-yl)methoxy)-4-(5-(3-methyl-1 H-1,2,4-triazole-1-carbonyl)hexahydropyrrolo[3,4-b]pyrrol-1(2H)-yl)quinazolin-7-yl)-7-fluorobenzo[b]thiophene-3-carbonitrile], the 50% inhibitory concentration (IC50) in assay [1] lay in the range of 1 to 10 µM. In assay [2], the “% G12S Modification at 24 hr.” value was “+++ (+++ indicates greater than 20% labelling)”.
